For data set [1], the system named is E-cadherin in primary hepatocytes. The data set can be described thus: E-cadherin expression by Western Blots. Format: cell-based, mouse. The settings on record: primary hepatocytes treated with TGF-β. The procedure: (§1) Further, the experiment on hepatocytes was conducted by isolating the primary hepatocyte from the liver of a male C57BL6 mouse of around 6 weeks old.
(§2) Specifically, cell motility according to treatment with cromolyn was analyzed by using the known wound assay in the presence and absence of TGF-β (2 ng/mL), and the healing distance of the wound was measured by […]. Further, after treating with TGF-β and cromolyn, changes in the E-cadherin expression was verified, which was confirmed by treating primary hepatocytes with TGF-β (Carl Bio Chem, USA) and then conducting Western Blots using the antibody against E-cadherin (H-180) (Santa Cruz, USA). In addition, tubulin was used as the loading control.

In data set [2] the test system is primary hepatocytes. As to the kind of experiment: wound assay, cell motility. Format: cell-based, mouse. The procedure:
as §1
The effect of cromolyn on restoration in hepatocytes was verified. […] Therefore, the present inventors confirmed the motility of primary hepatocytes by treating cromolyn in the presence and absence of TGF-β, which induces EMT.
as §2

In data set [3] the test system is HSC-T6 cell line. As to the kind of experiment: MTT assay, cell proliferation. Format: cell-based. To be noted: for effect on proliferation at low level: HSC-T6, 0.1 μM; for proliferation activity: HSC-T6, increasing levels, compared to untreated control. The procedure:
(§3) To confirm the proliferation activity on hepatic stellate cells, a MTT (3-(4,5-dimethylthiazol-2-yl)-2,5-diphenyltetrazolium bromide) assay was performed, and the HSC-T6 and LX2 cell lines obtained from <Example 1> above were used as hepatic stellate cells.
(§4) Specifically, the MTT assay was performed by seeding the cell suspensions of each cell onto a 96-well plate at a density of 5×10^4 cells/well. Then, the MIT stock solution (5 mg/mL) in which MTT was dissolved in PBS (phosphate-buffered saline, pH 7.2) was prepared, and 15 μL of the MTT solution was added to each well after filtration. After culturing for 4 hours at 37° C. and 5% CO2, the reaction was terminated by adding 185 μL of solubilization solution to each well, and then the cell viability was measured at an absorbance of 620 nm using an ELISA (enzyme-linked immunosorbent assay) reader. Furthermore, cell viability was measured by calculating the ratio of absorbance of the cells treated/untreated with the candidate agents.

The test system of another data set is LX2 cell line. As to the kind of experiment: MTT assay, cell proliferation. Format: cell-based. The settings on record: for effect on proliferation at low level: LX2, 0.1 μM; for proliferation activity: LX2, increasing levels, compared to untreated control. The procedure:
as §3, §4

Data set [4] deals with HSC-T6 cell line. As to the method: (§5) Specifically, while gradually increasing the amounts of cromolyn and ionomycin in an independent cell culture medium, the amount of LDH released into the above culture medium was measured, and the experiment was conducted by using a LDH cytotoxicity assay kit (Cayman Chemical, USA) according to the method provided by the manufacturer. First, the cells were grown in DMEM (Dulbecco's Modified Eagle Medium), to which 10% of heat inactivated fetal bovine serum and 1% of penicillin and streptomycin were added, at 37° C. and 5% CO2. Then, the above cells were seeded in a 96-well plate at a density of 2×10^4/well. Cromolyn and ionomycin were added thereto in increasing amounts. After 48 hours, 100 μL of the supernatant from each well was transferred to the new plates, 100 μL of the reaction solution was added to each well, the plate was incubated with gentle shaking on an orbital shaker for 30 minutes at the room temperature, and then the absorbance was measured at 490 nm with a plate reader.

Data set [5] deals with LX-2 cell line. The procedure:
as §5

For data set [6], the system named is primary hepatocytes. As to the kind of experiment: SA-β-gal (Senescence β-galactosidase) staining. Format: cell-based, mouse. The settings on record: three days in vitro culture. As to the method:
as §1
Since senescence is a typical phenomenon of fibrosis, the anti-senescence effect of cromolyn on hepatocytes was confirmed by using β-galactosidase staining, which is a senescence index.
SA-β-gal (Senescence β-galactosidase) staining was performed by using the Senescence β-Galactosidase Staining Kit (Biovision, USA) according to the method provided by the manufacturer. Specifically, after washing with PBS, the cells were fixed by 2% formaldehyde and 0.2% glutaraldehyde in PBS for 15 minutes at room temperature. The fixed cells were washed with PBS, and incubated together with X-gal staining solution for 24 hours at 37° C. The cells were visualized, and photographs were taken with the Zeiss PALM laser capture microdissection microscope (Zeiss, Germany).

For data set [7], the system named is HSC-T6 cell line. As to the kind of experiment: Sirius Red total collagen detection. Format: cell-based. The settings on record: HSC-T6, increasing level, 48 hours. The procedure: (§6) To confirm whether cromolyn inhibits the production of TGF-β and the accumulation of collagen, which are known as the major secretion marker of activated HSCs, LX-2 and HCT-T6 cell lines were analyzed by ELISA. Specifically, collagen was detected by using the Sirius Red Total Collagen Detection Kit (Chondrex, USA). The suspended cells were seeded in a 24-well plate at a density of 1×10^4 cells/well, and treated with various amounts of cromolyn for 48 hours. Then, the diluted solutions or standard samples were added to 1.5-mL centrifuge tubes in duplicate. Subsequently, each tube was incubated for 20 minutes at room temperature together with 500 μl of the Sirius Red solution. The supernatant was removed, the tubes were washed twice, and 200 μL of the final supernatant was transferred to a 96-well plate. The optical density was measured at 510-550 nm.

In data set [8] the test system is LX-2 cell line. The data set can be described thus: Sirius Red total collagen detection. To be noted: LX-2, increasing level, 48 hours. Format: cell-based. As to the method:
as §6

Data set [9] concerns HSC-T6 cell line. As to the kind of experiment: TGF-β production by ELISA. To be noted: HSC-T6, different concentrations. Type of data set: cell-based. The procedure:
(§7) To confirm whether cromolyn inhibits the production of TGF-β and the accumulation of collagen, which are known as the major secretion marker of activated HSCs, LX-2 and HCT-T6 cell lines were analyzed by ELISA.

Data set [10] relates to LX-2 cell line. The data set can be described thus: TGF-β production by ELISA. Type of data set: cell-based. The settings on record: LX-2, different concentrations. As to the method: as §7

Molecules are shown by their SMILES. Like-named read-outs stand apart in the source and are kept apart here.

Turning to `O=C(O)c1cc(=O)c2c(OCC(O)COc3cccc4oc(C(=O)O)cc(=O)c34)cccc2o1` [cromolyn, cromoglicic acid], the “expression of E-cadherin” value in data set [1] was “significantly inhibit the decrease in the expression of E-cadherin in a concentration-dependent manner”. In the data set on primary hepatocytes [2] (absence of TGF-β, compared to untreated control), the motility of hepatocytes entry is given as “did not show a significant difference”. Further, in the data set with primary hepatocytes [2] (presence of TGF-β (2 ng/mL), 48 hours), the “inhibition of migration activity of hepatocytes in terms of migration distance” value came out at 15%. Moreover, the “effect on proliferation at low level” value was “did not show a significant effect” in the data set with HSC-T6 cell line [3] and “anti-proliferation effect was confirmed” with LX2 cell line. The proliferation activity result in the data set on HSC-T6 cell line [3] and in the data set on LX2 cell line was “decrease” each time. Also, the “cytotoxicity (LDH release)” value in the data set on HSC-T6 cell line [4] (rat, 48 h) is listed as “no cytotoxicity except at the high level (10 μM)”; with LX-2 cell line [5] (human, 48 h), “no cytotoxicity except at the high level (10 μM)”. Moreover, the “number of β-galactosidase-positive cells” value with primary hepatocytes [6] is listed as “decrease in a concentration-dependent manner”. Also, the released collagen entry in the data set on HSC-T6 cell line [7] and with LX-2 cell line [8] was “significantly decreases” in each case. In addition, the “production of TGF-β” value with HSC-T6 cell line [9] and with LX-2 cell line [10] was “inhibit the production of TGF-β in a concentration-dependent manner” each time.
As for `C[C@H](CCC(=O)O)C[C@H](C)C[C@H](C)C(=O)/C=C(\O)[C@H](C)C[C@H](C)C/C=C/[C@@H](C)[C@@H](O)[C@@H](C)[C@@H](O)C[C@@H]1CC[C@@](C)([C@H]2CC[C@@](C)([C@@H](C)O)O2)O1` [ionomycin], the “effect on proliferation at low level” value in the data set on HSC-T6 cell line [3] is on record as “did not show a significant effect”; in the data set with LX2 cell line, “anti-proliferation effect was confirmed”. Besides, the proliferation activity result in the data set on HSC-T6 cell line [3] and in the data set on LX2 cell line was “decrease” throughout. Moreover, the “cytotoxicity (LDH release)” value in the data set with HSC-T6 cell line [4] (HSC-T6, increasing amounts, 48 hours (FIG. 2C)) was “induce cell death in a concentration dependent manner”; in the data set with LX-2 cell line [5] (LX-2, increasing amounts, 48 hours (FIG. 2D)) it was “induce cell death in a concentration dependent manner”.

These data come from patent publication US11219613B2, “Pharmaceutical composition for preventing and treating liver diseases, containing, as active ingredient, cromolyn or pharmaceutically acceptable salt thereof” (ONCOCROSS CO., LTD., priority 2015, dated 2022).
